Peptide text beside a SMILES is read from it.
Tests used:
[1] = system: Ad-TSHR-immunized mice; test: ventricular myocardial volumes from digitized cross-sectional LV areas; format: in vivo, BALB/c mice; conditions: 1 mg/kg IV 4-weekly, end of experiment
Method: In FIG. 7 the effect of the peptide therapy on heart rates at various times during the experiment (A), and on heart weights (B) and cardiac ventricular volumes (C) at the end of the experiment were evaluated in all animals. The measurements were carried out in Ad-TSHR-immunized mice treated by either 4-weekly injections with vehicle (0.9% NaCl, “Graves' no therapy”, n=25 mice), or administrations of 1 mg/kg body weight of peptide of the invention 836 (12 mice), or of peptide 829 (13 mice), or TSHR-Fc (18 mice). In addition, age-matched immunologically naïve unimmunized mice (“healthy”, 19 animals) were investigated. Data are represented as mean±SEM. […]
After euthanasia, dissection of the thyroid glands was performed under a stereomicroscope, as described before (22). […] Thyroid volumes (mm^3) were calculated from the sum of the areas of each section over the whole cutting region. Myocardial volumes (mm^3) were calculated in a similar way as described for thyroid glands from the sum of the areas of each section over whole cutting region (5 to 6 slides, depending on respective size of the hearts). […]

[2] = system: Ad-TSHR-immunized mice; test: qualitative histological investigation of the thyroid; format: in vivo, BALB/c mice; conditions: 9x AdTSHR-treated mice, 1 mg/kg IV 4-weekly
Method: After euthanasia, dissection of the thyroid glands was performed under a stereomicroscope, as described before (22). Briefly, cross cuts at the level above the larynx and below the seventh cartilage ring were made and the glands with the tracheae and oesophagi were removed from the necks. Tissue blocks were kept in 4% neutral para-formaldehyde (PFA), washed in PBS 3 times and embedded in optimum cutting temperature (OCT) formulation (Tissue-Tek® O.C.T.™ compound, VWR Chemicals, Leuven, Belgium). Consecutive 5 μm-thick cross sections were cut at a fixed distance of 500 μm using a Leica microtome CM 1850 Cryostat (temperature at −19° C.) and mounted on Thermo Polysine slides (Thermo Scientific, Cat J2800AMNZ). The collected sections represented a total distance of ˜5-6 mm, and covered the whole thyroid region of each animal. The tissue sections were then stained with hematoxylin-eosin (HE) and examined using bright field illumination on a Zeiss upright microscope. Thyroid volumes (mm^3) were calculated from the sum of the areas of each section over the whole cutting region. Myocardial volumes (mm^3) were calculated in a similar way as described for thyroid glands from the sum of the areas of each section over whole cutting region (5 to 6 slides, depending on respective size of the hearts). The method has been described before (22). […]

[3] = system: TSHR-overexpressing CHO cells JP2626; test: ex vivo TSHR-dependent cAMP stimulation in test cells; format: cell-based, human; conditions: 100 μg/ml test substance, anti-TSHR-antibody positive samples
Method: In FIG. 8 the effects of peptides on anti-TSHR antibody titers (A) and on cAMP stimulation in TSHR-expressing test cells (B) were studied ex vivo (anti-TSHR-antibody positive serum samples). Each measurement was carried out in 4 samples. Results are shown as % of untreated controls with standard errors of the means (SEM). Significance was tested by analysis of variance (ANOVA) between groups, followed by LSD post-hoc testing. **p<0.001, compared to controls
To investigate effects on TSHR-dependent cAMP stimulation ex vivo, TSHR-overexpressing CHO cells JP2626 were prepared as described above. Then, 100 μg/ml peptide 829, peptide of the invention 836 or fusion protein TSHR-Fc were added to the JP2626 cells. After incubation for 2.5 hours at 37° C. the cAMP release in the medium was measured in duplicates by a competitive immunoassay ELISA (#EMSCAMPL, Thermo Fisher Scientific, Waltham, Mass., USA).

Row | Compound | ventricular myocardial volumes [1] | mean histological scores of the thyroid [2] | cAMP-stimulating potency in TSHR-expressing test cells ex vivo [3]
1 | CC[C@H](C)[C@@H]1NC(=O)[C@H](C(C)C)NC(=O)[C@H]([C@@H](C)O)NC(=O)[C@H](CC(C)C)NC(=O)[C@H](Cc2ccc(O)cc2)NC(=O)[C@H](CCCCN)NC(=O)[C@H](CC(N)=O)NC(=O)[C@H](CCCCN)NC(=O)[C@H](CC(N)=O)NC(=O)[C@H](CC(C)C)NC(=O)[C@H](Cc2ccc(O)cc2)NC(=O)[C@H](C(C)C)NC(=O)[C@H](C)NC(=O)[C@H](CC(=O)O)NC(=O)[C@H](CC(C)C)NC(=O)[C@H](CCCCN)NC(=O)[C@H]([C@@H](C)O)NC(=O)CNC(=O)[C@H](CC(N)=O)NC(=O)[C@H](Cc2ccccc2)NC(=O)[C@H](C)NC(=O)[C@H](Cc2ccc(O)cc2)NC(=O)CNC(=O)[C@H](CC(=O)O)NC1=O [peptide 836] (cyclo(GYAFNGTKLDAVYLNKNKYLTVID)) | significantly reduced ventricular myocardial volumes |  | 
2 | TSHR-Fc: fusion protein: first 289 amino acids of human TSH receptor (A-subunit), GGR linker and Fc portion of human IgG2 | significantly reduced ventricular myocardial volumes | markedly better compared to the vehicle-treated group | reduction of titer and activity
